Source: the RepoRT retention time repository
Where a name gives a salt, the structure may show the parent alone.

Experiment: RP, Restek Raptor Biphenyl, 100 × 2.1 mm, 2.7 µm, 50 °C, 0.4 mL/min, estimated dead time 0.55 min; A: water + 0.1% formic acid, pH 3; B: methanol + 0.1% formic acid, pH 3; gradient (min/%B) 0/5 1.12/5 6.41/99.5 10.01/99.5
Conditions: stereoisomer not certain

LC retention time [min]	SMILES
5.79	CCCCCCCCCCCC[n+]1cccc(S(=O)(=O)[O-])c1 [C12-APS]
5.95	CCCCCCCCCCCCC[n+]1cccc(S(=O)(=O)[O-])c1 [C13-APS]
6.1	CCCCCCCCCCCCCC[n+]1cccc(S(=O)(=O)[O-])c1 [C14-APS]
6.23	CCCCCCCCCCCCCCC[n+]1cccc(S(=O)(=O)[O-])c1 [C15-APS]
6.34	CCCCCCCCCCCCCCCC[n+]1cccc(S(=O)(=O)[O-])c1 [C16-APS]
6.44	CCCCCCCCCCCCCCCCC[n+]1cccc(S(=O)(=O)[O-])c1 [C17-APS]
6.52	CCCCCCCCCCCCCCCCCC[n+]1cccc(S(=O)(=O)[O-])c1 [C18-APS]
6.61	CCCCCCCCCCCCCCCCCCC[n+]1cccc(S(=O)(=O)[O-])c1 [C19-APS]
6.67	CCCCCCCCCCCCCCCCCCCC[n+]1cccc(S(=O)(=O)[O-])c1 [C20-APS]
5.88	CC(=O)OCC(=O)C1(O)CCC2C3CCC4=CC(=O)CCC4(C)C3C(O)CC21C (configuration not stated) [CORTISOL 21-ACETATE]
5.49	CC12CCC(=O)C=C1CCC1C2C(O)CC2(C)C1CCC2(O)C(=O)CO (configuration not stated) [CORTISOL]
1.14	Nc1nc2c(ncn2C2OC3COP(=O)(O)OC3C2O)c(=O)[nH]1 (configuration not stated) [CYCLIC GMP]
5.85	CC(CCC(=O)O)C1CCC2C3C(OS(=O)(=O)O)CC4CC(O)CCC4(C)C3CC(O)C12C (configuration not stated) [Cholic acid 7-sulfate]
0.743	O=C(O)CC(O)(CC(=O)O)C(=O)O [Citric acid]
6.21	CC12CCC(=O)C=C1CCC1C2C(O)CC2(C)C(C(=O)CO)CCC12 (configuration not stated) [Corticosterone]
3.79	O=C(O)[C@H](O)Cc1ccccc1 [D-(+)-3-Phenyllactic acid]
0.818	Nc1ncnc2c1ncn2C1CC(O)C(COP(=O)(O)O)O1 (configuration not stated) [DEOXYADENOSINE MONOPHOSPHATE]
1.59	Nc1nc2c(ncn2C2CC(O)C(CO)O2)c(=O)[nH]1 (configuration not stated) [DEOXYGUANOSINE]
0.695	O=c1ccn(C2CC(O)C(COP(=O)(O)O)O2)c(=O)[nH]1 (configuration not stated) [DEOXYURIDINE-MONOPHOSPHATE]
1.22	O=c1ccn(C2CC(O)C(CO)O2)c(=O)[nH]1 (configuration not stated) [DEOXYURIDINE]
4.21	CC1NC(=O)NC1CCCCCC(=O)O (configuration not stated) [DETHIOBIOTIN]
0.695	Nc1nc2c(ncn2C2CC(O)C(COP(=O)(O)OP(=O)(O)O)O2)c(=O)[nH]1 (configuration not stated) [DGDP]

LC retention time [min]	SMILES
0.724	NCCc1ccc(O)c(O)c1 [DOPAMINE]
0.702	Cc1cn(C2CC(O)C(COP(=O)(O)OP(=O)(O)OC3OC(CO)C(O)C(O)C3O)O2)c(=O)[nH]c1=O [DTDP-D-GLUCOSE]
6.13	CC(CCC(=O)O)C1CCC2C3C(=O)CC4CC(=O)CCC4(C)C3CC(=O)C12C (configuration not stated) [Dehydrocholic acid]
6.37	CC(CCC(=O)O)C1CCC2C3CCC4CC(O)CCC4(C)C3CC(O)C12C (configuration not stated) [Deoxycholic acid]
5.22	CN(C)C(=O)Nc1ccc(Cl)c(Cl)c1 [Diuron]
6.84	CCCCCCCCC=CCCCCCCCCCCCC(=O)O [Erucic acid]
4.07	Cc1cc2nc3c(=O)[nH]c(=O)nc-3n(CC(O)C(O)C(O)COP(=O)(O)OP(=O)(O)OCC3OC(n4cnc5c(N)ncnc54)C(O)C3O)c2cc1C (configuration not stated) [FAD]
3.67	Nc1nc2ncc(CNc3ccc(C(=O)NC(CCC(=O)O)C(=O)O)cc3)nc2c(=O)[nH]1 (configuration not stated) [FOLATE]
1.15	Nc1nc2c(ncn2C2OC(CO)C(O)C2O)c(=O)[nH]1 (configuration not stated) [GUANOSINE]
1.37	O=C(O)CCCC(=O)O [Glutaric acid]
6.16	CC(CCC(=O)NCC(=O)O)C1CCC2C3CCC4CC(O)CCC4(C)C3CC(O)C12C (configuration not stated) [Glycodeoxycholic acid]
5.79	CC(CCC(=O)NCC(=O)O)C1CCC2C3CC(O)C4CC(O)CCC4(C)C3CCC12C (configuration not stated) [Glycohyodeoxycholic acid]
6.37	CC(CCC(=O)NCC(=O)O)C1CCC2C3CCC4CC(O)CCC4(C)C3CCC12C (configuration not stated) [Glycolithocholic acid]
3.44	O=C(O)CNC(=O)c1ccccc1 [HIPPURATE]
1.47	O=C(O)Cc1cc(O)ccc1O [HOMOGENTISATE]
2.46	COc1cc(CC(=O)O)ccc1O [HOMOVANILLATE]
6.42	COC(=O)c1c(Cl)nn(C)c1S(=O)(=O)NC(=O)Nc1nc(OC)cc(OC)n1 [Halosulfuron-methyl]
6.82	CCCCCCCCCCCCCCCCCCCCC(=O)O [Heneicosanoic acid]
7.05	CCCCCCCCCCCCCCCCCCCCCCCCCCC(=O)O [Heptacosanoic Acid]
6.6	CCCCCCCCCCCCCCCCC(=O)O [Heptadecanoic acid]
3.75	NC(=O)Cc1c[nH]c2ccccc12 [INDOLE-3-ACETAMIDE]
4.06	OCCc1c[nH]c2ccccc12 [INDOLE-3-ETHANOL]

LC retention time [min]	SMILES
2.52	O=S(=O)(O)Oc1c[nH]c2ccccc12 [INDOXYL SULFATE]
4.97	O=C(O)CCCc1c[nH]c2ccccc12 [Indole-3-butyric acid]
4.24	O=Cc1c[nH]c2ccccc12 [Indole-3-carboxaldehyde]
4.08	O=C(O)c1c[nH]c2ccccc12 [Indole-3-carboxylic acid]
4.66	O=C(O)CCc1c[nH]c2ccccc12 [Indole-3-propionic acid]
6.54	CC(C)CCCCCCCCCCCCC(=O)O [Isopalmitic acid]
6.67	CC(C)CCCCCCCCCCCCCCC(=O)O [Isostearic acid]
3.58	O=C(O)c1cc(=O)c2ccccc2[nH]1 [Kynurenic acid]
3.46	O=C1O[C@H]([C@@H](O)CO)C(O)=C1O [L-Ascorbic acid]
0.702	N[C@@H](Cc1ccc(O)c(O)c1)C(=O)O [L-DOPA]
0.746	O=C(O)CC[C@H](O)C(=O)O [L-α-Hydroxyglutaric acid disodium salt]
5.46	CCCCCCCCCCCC(=O)OC(CC(=O)[O-])C[N+](C)(C)C [Lauroyl-L-carnitine]
6.53	CCC=CCC=CCC=CCCCCCCCC(=O)O [Linolenic acid]
0.676	O=C(O)CC(O)C(=O)O (configuration not stated) [MALATE]
2.98	O=C(O)C(O)c1ccccc1 (configuration not stated) [MANDELATE]
5.67	Cc1c(=O)c(=O)c2c3c[nH]c4c(C)c(=O)c(=O)c(c5c[nH]c1c52)c43 [MELANIN]
4.57	COc1ccc2[nH]cc(CCNC(C)=O)c2c1 [MELATONIN]
3.18	CSCC1OC(n2cnc3c(N)ncnc32)C(O)C1O (configuration not stated) [METHYLTHIOADENOSINE]
7.12	CCCCCCCCCCCCCCCCCCCCCCCCCCCCCC(=O)O [Melissic acid]
6.04	COC(=O)c1ccc(CNS(C)(=O)=O)cc1S(=O)(=O)NC(=O)Nc1nc(OC)cc(OC)n1 [Mesosulfuron-methyl]
0.96	CC(C(=O)O)C(=O)O [Methylmalonic acid]

SMILES	LC retention time [min]
CC1=C(C(=O)Nc2ccccc2)SCCO1 [Carboxin]	5.79
CNC(=O)c1cc(Cl)cc(C)c1NC(=O)c1cc(Br)nn1-c1ncccc1Cl [Chlorantraniliprole]	5.84
O=C(Nc1ccc(F)cc1F)c1cccnc1Oc1cccc(C(F)(F)F)c1 [Diflufenican]	6.33
CC(C)(C)C(O)C(=Cc1ccc(Cl)cc1Cl)n1cncn1 (configuration not stated) [Diniconazole]	6.05
CNC(=N[N+](=O)[O-])NCC1CCOC1 (configuration not stated) [Dinotefuran]	3.16
CC1(c2ccc(Oc3ccccc3)cc2)OC(=O)N(Nc2ccccc2)C1=O (configuration not stated) [Famoxadone]	6.68
OC(c1ccc(Cl)cc1)(c1cncnc1)c1ccccc1Cl (configuration not stated) [Fenarimol]	6.02
CC1(C(=O)Nc2ccc(O)c(Cl)c2Cl)CCCCC1 [Fenhexamid]	5.83
N#Cc1nn(-c2c(Cl)cc(C(F)(F)F)cc2Cl)c(N)c1S(=O)C(F)(F)F (configuration not stated) [Fipronil]	5.6
N#CCNC(=O)c1cnccc1C(F)(F)F [Flonicamid]	3.4
O=[N+]([O-])c1cc(C(F)(F)F)c(Cl)c([N+](=O)[O-])c1Nc1ncc(C(F)(F)F)cc1Cl [Fluazinam]	6.33
Cc1cc(C(F)(C(F)(F)F)C(F)(F)F)ccc1NC(=O)c1cccc(I)c1C(=O)NC(C)(C)CS(C)(=O)=O [Flubendiamide]	5.97
N#Cc1c[nH]cc1-c1cccc2c1OC(F)(F)O2 [Fludioxonil]	5.51
Cc1ccn2nc(S(=O)(=O)Nc3c(F)cccc3F)nc2n1 [Flumetsulam]	4.92
CN(C)C(=O)Nc1cccc(C(F)(F)F)c1 [Fluometuron]	4.92
COc1cc(OC)nc(NC(=O)NS(=O)(=O)c2cc(NC=O)ccc2C(=O)N(C)C)n1 [Foramsulfron]	5.76
O=C(Nc1ccccc1)Nc1ccnc(Cl)c1 [Forchlorfenuron]	5.17
CC(C)(C)N(NC(=O)c1ccc(Cl)cc1)C(=O)c1ccccc1 [Halofenozide]	5.6
CCCCC(O)(Cn1cncn1)c1ccc(Cl)cc1Cl (configuration not stated) [Hexaconazole]	5.98
CC(C)C1CCC(Cc2ccc(Cl)cc2)C1(O)Cn1cncn1 (configuration not stated) [Ipconazole]	6.21
O=c1[nH]c2c(c(=O)n1C1CCCCC1)CCC2 [Lenacil]	5.48
CC1(C)CCC(Cc2ccc(Cl)cc2)C1(O)Cn1cncn1 (configuration not stated) [Metconazole]	6.09
